Key:
Zika Virus = test: Inhibition of viral replication (CPE) at cellular level, Zika Virus in Vero; details: for SI (TC50/IC50): Zika Virus in host cell Vero; for IC50: Zika virus, Vero
[1] = Determination of TC50 (half toxicity concentration) in RD cells; assay type: cell-based; details: human, host cell RD, EV71 table
H1N1 (influenza virus) [2] = details: H1N1 in host cell MDCK
[3] = test system: EV71 (hand-foot-and-mouth virus); details: EV71 in host cell RD
[4] = test system: Dengue Virus 2 (type 2 dengue virus); test: Inhibition of viral replication (CPE) at cellular level, Dengue Virus 2 in Vero; assay type: cell-based; details: Dengue Virus 2 in host cell Vero; for IC50: CPE
Description: Activity Test for Inhibition of Viral Replication at Cellular Level […]
The present inventors tested inhibitory effects of the compound of the present invention on cytopathic effects (CPE) caused by viral infection on mammalian cells.
Half-inhibitory concentration IC50 and half toxic concentration TC50 of the compound against Dengue Virus 2 (type 2 dengue virus) in host cell Vero (African green monkey kidney cell).

[5] = test system: JEV (Japanese encephalitis virus); test: Inhibition of viral replication (CPE) at cellular level, JEV in Vero; details: for SI (TC50/IC50): JEV in host cell Vero; for IC50: Japanese encephalitis virus, Vero
[6] = test system: EV71 (hand-foot-and-mouth virus); test: microbe, parasite or virus in culture; details: Enterovirus A
H3N2 (influenza virus) [7] = details: H3N2 in host cell MDCK
[8] = test system: RSV (human respiratory syncytial virus); test: Inhibition of viral replication (CPE) at cellular level, RSV in Vero; details: for SI (TC50/IC50): RSV in host cell Vero; for IC50: human respiratory syncytial virus, Vero
H3N2 (influenza virus) [9] = test: microbe, parasite or virus in culture; details: Influenza A virus, H3N2, MDCK
H7N9 (influenza virus) [10] = test: microbe, parasite or virus in culture; details: Influenza A virus, H7N9, MDCK
H7N9 (influenza virus) [11] = details: H7N9 in host cell MDCK
H1N1 (influenza virus) [12] = test: microbe, parasite or virus in culture; details: Influenza A virus, H1N1, MDCK
in vitro [13] = details: African green monkey
in vitro [14] = details: dog
[15] = TC50, host cell Vero, Dengue Virus 2 table
[16] = TC50, host cell Vero, RSV table
[17] = TC50, host cell Vero, Zika Virus table
[18] = TC50, host cell MDCK, H1N1 table
[19] = TC50, host cell MDCK, H3N2 table

Row | SMILES | SI (TC50/IC50) (Zika Virus) | IC50 (Zika Virus) [µM] | CC50 [1] [µM] | SI (TC50/IC50) (H1N1 (influenza virus) [2]) | SI (TC50/IC50) [3] | SI (TC50/IC50) [4] | IC50 [4] [µM] | IC50 [6] [µM] | SI (TC50/IC50) (H3N2 (influenza virus) [7]) | IC50 [8] [µM] | IC50 (H3N2 (influenza virus) [9]) [µM] | IC50 (H7N9 (influenza virus) [10]) [µM] | IC50 (H1N1 (influenza virus) [12]) [µM] | CC50 (in vitro [13]; [15]) [µM] | CC50 (in vitro [13]; [16]) [µM] | CC50 (in vitro [13]; [17]) [µM] | IC50 (H3N2 (influenza virus) [9]; H3N2 in host cell MDCK, CPE) [µM] | CC50 (in vitro [14]; [18]) [µM] | CC50 (in vitro [14]; [19]) [µM] | IC50 (H1N1 (influenza virus) [12]; H1N1 in host cell MDCK, CPE) [µM] | further results
1 | Cc1ccc(/C=N/Nc2nc(-c3ccccc3Cl)cs2)c(C(=O)O)c1 [Compound 9-1] | 127 | 0.33 | 3 | 653 | 9 | 125.8 | 0.31 | 0.33 | 330 | 3.36 | 0.27 | 0.67 | 0.36 | 39 | 135 | 42 | – | – | – | – | SI (TC50/IC50) [5]: 100; IC50 [5]: 0.32 µM; SI (TC50/IC50) [8]: 40; SI (TC50/IC50) (H7N9 (influenza virus) [11]): 327; CC50 (in vitro [13]): 32 µM
2 | CN(/N=C/c1ccccc1C(=O)O)c1nc(-c2ccccc2Cl)cs1 [Compound 1, (E)-4-(2-chlorophenyl)-2-[1-methyl-2-(2-carboxybenzylidene)hydrazino]thiazole] | 130 | 0.1 | 1 | 83 | 7.1 | 145 | 0.11 | 0.14 | 125 | 4.34 | 0.12 | 2.32 | 0.42 | 16 | 31 | 13 | – | – | – | – | SI (TC50/IC50) [5]: 80; IC50 [5]: 0.15 µM; SI (TC50/IC50) (H7N9 (influenza virus) [11]): 11; CC50 (in vitro [13]): 12 µM
3 | Cc1ccc(/C=N/N(C)c2nc(-c3ccccc3)c(C)s2)c(C(=O)O)c1 [Compound 11, (E)-5-methyl-4-phenyl-2-[1-methyl-2-(4-methyl-2-carboxybenzylidene)hydrazino]thiazole] | – | – | – | 47 | – | – | – | – | 2.72 | – | – | 14 | – | – | – | – | 86 | 241 | 234 | 5.1 | CC50 (in vitro [14]; TC50): 54 µM
4 | O=C(O)c1cc(F)ccc1/C=N/Nc1nc(-c2ccccc2Cl)cs1 [Compound 10-1] | 523 | 0.17 | 1 | 615 | 5.6 | 300 | 0.15 | 0.18 | 313 | 7.39 | 0.31 | 0.49 | 0.39 | 45 | 50 | 89 | – | – | – | – | SI (TC50/IC50) [5]: 306; IC50 [5]: 0.16 µM; SI (TC50/IC50) [8]: 6.8; SI (TC50/IC50) (H7N9 (influenza virus) [11]): 516; CC50 (in vitro [13]): 49 µM
5 | O=C(O)c1ccccc1/C=N/Nc1nc(-c2cc(Cl)ccc2Cl)cs1 [Compound 55, (E)-2-((2-(4-(2,5-dichlorophenyl)thiazol-2-yl)hydrazono)methyl)benzoic Acid] | 206 | 0.33 | 3.1 | 50 | 6 | 110 | 0.63 | 0.51 | 45.6 | 8.2 | 12 | 6.9 | 8.2 | 69 | 154 | 68 | – | – | – | – | SI (TC50/IC50) [8]: 19; CC50 (in vitro [14]; TC50): 547 µM
6 | CCc1sc(N/N=C/c2ccccc2C(=O)O)nc1-c1ccccc1Cl [Compound 14, (E)-5-ethyl-4-(2-chlorophenyl)-2-(2-carboxylbenzylidenehydrazino)thiazole] | – | – | – | 2.1 | – | – | – | – | 0.16 | – | – | – | – | – | – | – | 550 | 88 | 91 | 41 | –
7 | CC(C)N(/N=C/c1ccccc1C(=O)O)c1nc(-c2ccccc2Cl)cs1 [Compound 4, (E)-4-(2-chlorophenyl)-2-[1-isopropyl-2-(2-carboxybenzylidene)hydrazino]thiazole] | – | – | – | 8.8 | – | – | – | – | 0.31 | – | – | – | – | – | – | – | 112 | 23 | 35 | 2.6 | –
8 | CN(/N=C/c1ccccc1C(=O)O)c1nc(-c2ccccc2)cs1 [Compound 20, (E)-4-phenyl-2-[1-methyl-2-(2-carboxybenzylidene)hydrazino]thiazole] | – | – | – | 22.8 | – | – | – | – | 11 | – | – | – | – | – | – | – | 5.2 | 57 | 57 | 2.5 | –
9 | Cc1sc(N/N=C/c2ccccc2C(=O)O)nc1-c1ccccc1 [Compound 17, (E)-5-methyl-4-phenyl-2-(2-carboxylbenzylidenehydrazino)thiazole] | – | – | – | 7 | – | – | – | – | 62.6 | – | – | – | – | – | – | – | 1.5 | 561 | 94 | 8.1 | –
10 | Cc1sc(N(C)/N=C/c2ccccc2C(=O)O)nc1-c1ccccc1Cl [Compound 13] | – | – | – | 1.3 | – | – | – | – | 3.27 | – | – | – | – | – | – | – | 114 | 87 | 373 | 65 | –
11 | CCCC(C)N(/N=C/c1ccccc1C(=O)O)c1nc(-c2ccccc2Cl)cs1 (stereo not drawn) [Compound 6, (E)-4-(2-chlorophenyl)-2-[1-(2-amyl)-2-(2-carboxybenzylidene)hydrazino]thiazole] | – | – | – | 2 | – | – | – | – | 0.18 | – | – | – | – | – | – | – | 554 | 451 | 97 | 124 | –
12 | Cc1sc(N/N=C/c2ccccc2C(=O)O)nc1-c1ccccc1 [Compound 12-1] | 110 | 0.3 | 2 | 362 | 5 | 59 | 0.39 | 0.39 | 246 | 6.91 | 0.52 | 2.3 | 0.91 | 23 | 39 | 33 | – | – | – | – | SI (TC50/IC50) [5]: 138.7; IC50 [5]: 0.31 µM; SI (TC50/IC50) [8]: 5.6; SI (TC50/IC50) (H7N9 (influenza virus) [11]): 108; CC50 (in vitro [13]): 43 µM
13 | Cc1ccc(/C=N/N(C)c2nc(-c3ccccc3Cl)cs2)c(C(=O)O)c1 [Compound 9, (E)-4-(2-chlorophenyl)-2-[1-methyl-2-(4-methyl-2-carboxybenzylidene)hydrazino]thiazole] | 100 | 0.15 | 1 | 240 | 8.3 | 106 | 0.17 | 0.12 | 137 | 2.27 | 0.19 | 0.53 | 0.27 | 18 | 35 | 15 | – | – | – | – | SI (TC50/IC50) [5]: 73.3; IC50 [5]: 0.15 µM; SI (TC50/IC50) [8]: 15; SI (TC50/IC50) (H7N9 (influenza virus) [11]): 83; CC50 (in vitro [13]): 11 µM
14 | CCC(C)N(/N=C/c1ccccc1C(=O)O)c1nc(-c2ccccc2Cl)cs1 (stereo not drawn) [Compound 5, (E)-4-(2-chlorophenyl)-2-[1-(2-butyl)-2-(2-carboxybenzylidene)hydrazino]thiazole] | – | – | – | 1.3 | – | – | – | – | 0.37 | – | – | – | – | – | – | – | 243 | 68 | 89 | 52 | –
15 | CN(/N=C/c1cc(F)c(F)cc1C(=O)O)c1nc(-c2ccccc2Cl)cs1 [Compound 23] | – | – | – | 223 | – | – | – | – | – | – | – | 0.35 | – | – | – | – | – | 87 | – | 0.39 | CC50 (in vitro [14]; TC50): 54 µM
16 | CN(/N=C/c1ccccc1C(=O)O)c1nc(-c2cccc(Cl)c2)cs1 [Compound 21, (E)-4-(3-chlorophenyl)-2-[1-methyl-2-(2-carboxybenzylidene)hydrazino]thiazole] | – | – | – | 7.6 | – | – | – | – | 19.6 | – | – | – | – | – | – | – | 2.5 | 41 | 49 | 5.4 | –

Reference: patent publication US11590109B2 (priority 2016, dated 2023)
